# Measured values taken from patent publication US8501746B2, “Organic compounds” (Xenon Pharmaceuticals Inc., priority 2006, dated 2013).
row,melting point,Structure (SMILES)
1,235 to 237 °C,"Cc1nc(-n2ccc(-c3ccccc3)cc2=O)sc1C(=O)NCc1ccccc1 [Example 1, N-benzyl-4-methyl-2-(2-oxo-4-phenylpyridin-1(2H)-yl)thiazole-5-carboxamide]"
2,172 to 174 °C,"Cc1nc(-n2ccc(OCCC3CC3)cc2=O)sc1C(=O)NCc1ccccc1 [Example 1.3, N-Benzyl-2-(4-(2-cyclopropylethoxy)-2-oxopyridin-1(2H)-yl)-4-methylthiazole-5-carboxamide]"
3,172 to 174 °C,"Cc1nc(-n2ccc(OCCC3CC3)cc2=O)sc1C(=O)NCc1ccc(F)cc1 [Example 1.4, 2-(4-(2-Cyclopropylethoxy)-2-oxopyridin-1(2H)-yl)-N-(4-fluorobenzyl)-4-methylthiazole-5-carboxamide]"
4,170 to 172 °C,"Cc1nc(-n2ccc(OCCC3CC3)cc2=O)sc1C(=O)NCc1cccnc1 [Example 1.5, 2-(4-(2-Cyclopropylethoxy)-2-oxopyridin-1(2H)-yl)-4-methyl-N-(pyridin-3-ylmethyl)thiazole-5-carboxamide]"
5,280 to 282 °C,"Cc1nc(-n2ccc(O)cc2=O)sc1C(=O)NCc1ccc(F)cc1 [Example 1.6, N-(4-Fluorobenzyl)-2-(4-hydroxy-2-oxopyridin-1(2H)-yl)-4-methylthiazole-5-carboxamide]"
6,203 to 204 °C,"Cc1nc(-n2ccc(OCc3ccccc3)cc2=O)[nH]c1C(=O)NCc1cccnc1 [Example 1.8, 2-(4-(Benzyloxy)-2-oxopyridin-1(2H)-yl)-4-methyl-N-(pyridin-3-ylmethyl)-1H-imidazole-5-carboxamide]"
7,232 to 233 °C,"Cc1nc(-n2ccc(OCc3ccccc3)cc2=O)n(C)c1C(=O)NCc1ccccc1 [Example 1.9, N-Benzyl-2-(4-(benzyloxy)-2-oxopyridin-1(2H)-yl)-1,4-dimethyl-1H-imidazole-5-carboxamide]"
8,190 to 191 °C,"Cc1c(C(=O)NCc2ccccc2)nc(-n2ccc(OCc3ccccc3)cc2=O)n1C [Example 1.10, N-Benzyl-2-(4-(benzyloxy)-2-oxopyridin-1(2H)-yl)-1,5-dimethyl-1H-imidazole-4-carboxamide]"
9,200 to 202 °C,"COc1ccn(-c2nc(C)c(C(=O)NCc3cccnc3)s2)c(=O)c1 [Example 1.11, 2-(4-Methoxy-2-oxopyridin-1(2H)-yl)-4-methyl-N-(pyridin-3-ylmethyl)thiazole-5-carboxamide]"
10,240 to 242 °C,"Cc1nc(-n2ccc(OCc3ccc(C(F)(F)F)o3)cc2=O)sc1C(=O)NCc1cccnc1 [Example 1.12, 4-Methyl-2-(2-oxo-4-((5-(trifluoromethyl)furan-2-yl)methoxy)pyridin-1(2H)-yl)-N-(pyridin-3-ylmethyl)thiazole-5-carboxamide]"
11,231 to 233 °C,"Cc1nc(-n2ccc(OCc3ccc(F)cc3)cc2=O)sc1C(=O)NCc1cccnc1 [Example 1.13, 2-(4-(4-Fluorobenzyloxy)-2-oxopyridin-1(2H)-yl)-4-methyl-N-(pyridin-3-ylmethyl)thiazole-5-carboxamide]"
12,249 to 251 °C,"Cc1nc(-n2ccc(OCc3ccc(F)cc3)cc2=O)sc1C(=O)NCc1ccc(F)cc1 [Example 1.14, N-(4-Fluorobenzyl)-2-(4-(4-fluorobenzyloxy)-2-oxopyridin-1(2H)-yl)-4-methylthiazole-5-carboxamide]"
13,250 to 252 °C,"Cc1nc(-n2ccc(O)cc2=O)sc1C(=O)NCc1cccc(F)c1 [Example 1.15, N-(3-Fluorobenzyl)-2-(4-hydroxy-2-oxopyridin-1(2H)-yl)-4-methylthiazole-5-carboxamide]"
14,240 to 242 °C,"Cc1nc(-n2ccc(O)cc2=O)sc1C(=O)NCC1CC1 [Example 1.16, N-(Cyclopropylmethyl)-2-(4-hydroxy-2-oxopyridin-1(2H)-yl)-4-methylthiazole-5-carboxamide]"
15,234 to 236 °C,"Cc1nc(-n2ccc(O)cc2=O)sc1C(=O)NCCC1CC1 [Example 1.17, N-(2-Cyclopropylethyl)-2-(4-hydroxy-2-oxopyridin-1(2H)-yl)-4-methylthiazole-5-carboxamide]"
16,225 to 227 °C,"Cc1nc(-n2ccc(O)cc2=O)sc1C(=O)NCCc1ccc(F)cc1 [Example 1.18, N-(4-Fluorophenethyl)-2-(4-hydroxy-2-oxopyridin-1(2H)-yl)-4-methylthiazole-5-carboxamide]"
17,294 to 296 °C,"Cc1nc(-n2ccc(O)cc2=O)sc1C(=O)NCc1ccc(F)c(F)c1 [Example 1.19, N-(3,4-Difluorobenzyl)-2-(4-hydroxy-2-oxopyridin-1(2H)-yl)-4-methylthiazole-5-carboxamide]"
18,275 to 278 °C,"Cc1nc(-n2ccc(O)cc2=O)sc1C(=O)NCc1ccncc1 [Example 1.20, 2-(4-Hydroxy-2-oxopyridin-1(2H)-yl)-4-methyl-N-(pyridin-4-ylmethyl)thiazole-5-carboxamide]"
19,165 to 167 °C,"Cc1cc(-n2ccc(OCc3ccccc3)cc2=O)sc1C(=O)NCc1cccnc1 [Example 1.23, 5-(4-(Benzyloxy)-2-oxopyridin-1(2H)-yl)-3-methyl-N-(pyridin-3-ylmethyl)thiophene-2-carboxamide]"
20,243 to 245 °C,"Cc1nc(-n2ccc(OCc3ccc(F)cc3)cc2=O)sc1C(=O)NCc1ccccc1 [Example 1.24, N-Benzyl-2-(4-(4-fluorobenzyloxy)-2-oxopyridin-1(2H)-yl)-4-methylthiazole-5-carboxamide]"
21,219 to 220 °C,"Cc1nc(-n2ccc(OCc3ccccc3)cc2=O)sc1C(=O)NCc1ccccc1 [Example 2, N-Benzyl-2-(4-(benzyloxy)-2-oxopyridin-1(2H)-yl)-4-methylthiazole-5-carboxamide]"
22,171 to 172 °C,"Cc1nc(-n2ccc(N)cc2=O)sc1C(=O)NCc1ccccc1 [Example 3, 2-(4-Amino-2-oxopyridin-1(2H)-yl)-N-benzyl-4-methylthiazole-5-carboxamide]"
23,186 to 187 °C,"Cc1nc(-n2ccnc(C)c2=O)sc1C(=O)NCc1ccccc1 [Example 3.1, N-Benzyl-4-methyl-2-(3-methyl-2-oxopyrazin-1(2H)-yl)thiazole-5-carboxamide]"
24,166 to 167 °C,"Cc1nc(-n2cc(OCc3ccccc3)ccc2=O)sc1C(=O)NCc1ccccc1 [Example 3.2, N-Benzyl-2-(5-(benzyloxy)-2-oxopyridin-1(2H)-yl)-4-methylthiazole-5-carboxamide]"
25,173 to 174 °C,"Cc1nc(-n2cc(Cl)ccc2=O)sc1C(=O)NCc1ccccc1 [Example 3.3, N-Benzyl-2-(5-chloro-2-oxopyridin-1(2H)-yl)-4-methylthiazole-5-carboxamide]"
26,148 to 149 °C,"Cc1nc(-n2cc(C(F)(F)F)ccc2=O)sc1C(=O)NCc1ccccc1 [Example 3.4, N-Benzyl-4-methyl-2-(2-oxo-5-(trifluoromethyl)pyridin-1(2H)-yl)thiazole-5-carboxamide]"
27,197 to 198 °C,"Cc1nc(-n2ccc(C(F)(F)F)cc2=O)sc1C(=O)NCc1ccccc1 [Example 3.6, N-Benzyl-4-methyl-2-(2-oxo-4-(trifluoromethyl)pyridin-1(2H)-yl)thiazole-5-carboxamide]"
28,198 to 201 °C,"Cc1nc(-n2cccc(OCc3ccccc3)c2=O)sc1C(=O)NCc1ccccc1 [Example 3.7, N-Benzyl-2-(3-(benzyloxy)-2-oxopyridin-1(2H)-yl)-4-methylthiazole-5-carboxamide]"
